Source: ChEMBL document CHEMBL2385040, “Synthesis and antiproliferative activity of 4-substituted-piperazine-1-carbodithioate derivatives of 2,4-diaminoquinazoline” (Eur J Med Chem, 2013)
Activity calls are given as the source filed them. The rule behind the calls is not given here.

Tests used:
A549 [1] = assay: cells; conditions: Homo sapiens, A549, 72 h
Description: Antiproliferative activity against human A549 cells after 72 hrs by MTT assay

HT-29 [2] = assay: cells; conditions: Homo sapiens, HT-29, 72 h
HeLa [3] = assay: Antiproliferative activity against human HeLa cells after 72 hrs by MTT assay; type: functional, cell-based
HCT-116 [4] = assay: Antiproliferative activity against human HCT116 cells after 72 hrs by MTT assay; type: functional, cell-based; conditions: HCT-116, 72 h
MCF7 [5] = assay: cells; conditions: Homo sapiens, MCF7, 72 h
HCT-116 [6] = assay: Cell cycle arrest in human HCT116 cells assessed as accumulation at S phase at IC50 after 24 hrs by propidium iodide staining-based FACS flow cytometric analysis (reference value: 25.39%); type: functional
HCT-116 [7] = assay: Induction of DNA damage in human HCT116 cells assessed as formation of marker ser-139 phosphorylated H2AX nuclear foci after 2 hrs by immunofluorescence assay; type: functional, cell-based
HCT-116 [8] = assay: Cell cycle arrest in human HCT116 cells assessed as accumulation at G2/M phase at IC50 after 24 hrs by propidium iodide staining-based FACS flow cytometric analysis (reference value: 11.54%); type: functional
HCT-116 [9] = assay: Cell cycle arrest in human HCT116 cells assessed as accumulation at G0/G1 phase at IC50 after 24 hrs by propidium iodide staining-based FACS flow cytometric analysis (reference value: 63.07%); type: functional
HCT-116 [10] = assay: Antiproliferative activity against human HCT116 cells at 20 uM after 72 hrs by MTT assay relative to control; type: functional, cell-based; conditions: HCT-116, 72 h
MCF7 [11] = assay: Antiproliferative activity against human MCF7 cells at 20 uM after 72 hrs by MTT assay relative to control; type: functional, cell-based; conditions: MCF7, 72 h
HeLa [12] = assay: Antiproliferative activity against human HeLa cells at 20 uM after 72 hrs by MTT assay relative to control; type: functional, cell-based
HT-29 [13] = assay: Antiproliferative activity against human HT-29 cells at 20 uM after 72 hrs by MTT assay relative to control; type: functional, cell-based; conditions: HT-29, 72 h
HCT-116 [14] = assay: Induction of DNA damage in human HCT116 cells assessed as G2/M checkpoint activation measured as reduction in mitotic index after 2 hrs by immunofluorescence assay; type: functional
A549 [15] = assay: Antiproliferative activity against human A549 cells at 20 uM after 72 hrs by MTT assay relative to control; type: functional, cell-based; conditions: A549, 72 h
[16] = target: Thymidylate synthase (Homo sapiens) (UniProt P04818); conditions: 1 uM
Chain of Thymidylate synthase (Homo sapiens) (P04818 2-313 limits assumed): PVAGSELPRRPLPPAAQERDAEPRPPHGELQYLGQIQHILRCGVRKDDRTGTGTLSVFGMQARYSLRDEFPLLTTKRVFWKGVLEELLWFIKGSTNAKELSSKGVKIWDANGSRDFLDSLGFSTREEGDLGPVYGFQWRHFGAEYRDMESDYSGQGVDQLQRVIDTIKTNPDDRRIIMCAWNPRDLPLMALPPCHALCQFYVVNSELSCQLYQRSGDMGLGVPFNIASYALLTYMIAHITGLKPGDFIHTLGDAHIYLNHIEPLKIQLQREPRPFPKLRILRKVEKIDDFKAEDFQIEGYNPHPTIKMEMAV
Description: Inhibition of human recombinant His-tagged thymidylate synthase assessed as N5,N10-methylenetetrahydrofolate oxidation to dihydrofolate at 1 uM after 20 mins by UV spectrophotometric analysis relative to control

Dihydrofolate reductase = target: T1, Dihydrofolate reductase (Homo sapiens, UniProt P00374); assay: Inhibition of human dihydrofolate reductase by spectrophotometric analysis
T1 sequence (P00374 whole entry): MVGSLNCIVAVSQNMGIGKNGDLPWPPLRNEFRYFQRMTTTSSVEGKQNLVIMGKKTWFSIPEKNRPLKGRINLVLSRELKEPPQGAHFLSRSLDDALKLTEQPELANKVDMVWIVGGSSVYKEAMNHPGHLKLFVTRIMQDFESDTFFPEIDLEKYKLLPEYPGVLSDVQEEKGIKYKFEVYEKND

[17] = target: T2, Dihydrofolate reductase (Homo sapiens) (UniProt P00374); assay: Inhibition of human dihydrofolate reductase at 500 nM by spectrophotometric analysis relative to control
T2 sequence (whole entry): T1 sequence (P00374 whole entry)

[18] = target: Thymidylate synthase (Homo sapiens) (UniProt P04818); assay: Inhibition of human recombinant His-tagged thymidylate synthase assessed as N5,N10-methylenetetrahydrofolate oxidation to dihydrofolate at 50 uM after 20 mins by UV spectrophotometric analysis relative to control

Structure (SMILES) | IC50 (A549 [1]) [µM] | IC50 (HT-29 [2]) [µM] | IC50 (HeLa [3]) [µM] | IC50 (HCT-116 [4]) [µM] | IC50 (MCF7 [5]) [µM] | other results
CC(=O)c1ccc(N2CCN(C(=S)SCc3ccc4nc(N)nc(N)c4c3)CC2)cc1 | 2.55 | 2.28 | 2.04 | 8.26 | 2.49 | –
Nc1nc(N)c2cc(CSC(=S)N3CCN(c4ccccc4)CC3)ccc2n1 | 2.97 | 2.76 | 2.84 | 4.12 | 2.95 | –
Nc1nc(N)c2cc(CSC(=S)N3CCN(c4ccccc4[N+](=O)[O-])CC3)ccc2n1 | 4.36 | 4.31 | 4.88 | 5.52 | 4.35 | –
O=c1[nH]cc(F)c(=O)[nH]1 [FLUOROURACIL] | 3.52 | 24.5 | 43.7 | 5.53 | 32.2 | Activity (HCT-116 [6]): 47.75%; Activity (HCT-116 [7]): inactive; Activity (HCT-116 [8]): 6.81%; Activity (HCT-116 [9]): 45.44%
CN1CCN(C(=S)SCc2ccc3nc(N)nc(N)c3c2)CC1 | 9.2 | – | – | – | – | IC50 (HCT-116 [10]): > 20 µM; IC50 (MCF7 [11]): > 20 µM; IC50 (HeLa [12]): > 20 µM; IC50 (HT-29 [13]): > 20 µM
Nc1nc(N)c2cc(CSC(=S)N3CCN(C4CCCCC4)CC3)ccc2n1 | 4.71 | 4.05 | 5.96 | 8.4 | 6.8 | –
Nc1nc(N)c2cc(CSC(=S)N3CCN(c4ccc(Cl)cc4)CC3)ccc2n1 | 5.21 | 7.48 | 6.99 | 7.38 | 4.88 | –
Nc1nc(N)c2cc(CSC(=S)N3CCN(c4ccccc4F)CC3)ccc2n1 | 6.46 | 5.42 | 6.66 | – | 4.84 | –
Nc1nc(N)c2cc(CSC(=S)N3CCN(c4ncccn4)CC3)ccc2n1 | 4.01 | 4.72 | 4.36 | 5.84 | 4.19 | –
CC[C@@]1(O)C(=O)OCc2c1cc1n(c2=O)Cc2cc3ccccc3nc2-1 [CAMPTOTHECIN] | – | – | – | – | – | Ratio (HCT-116 [14]): 0.64
Nc1nc(N)c2cc(CSC(=S)N3CCN(c4ccc(F)cc4F)CC3)ccc2n1 | 5.12 | 5.02 | 3.8 | 5.15 | 3.67 | –
Nc1nc(N)c2cc(CSC(=S)N3CCN(c4ccc(C(F)(F)F)cc4)CC3)ccc2n1 | – | – | – | – | 7.4 | IC50 (HCT-116 [10]): > 20 µM; IC50 (A549 [15]): > 20 µM; IC50 (HeLa [12]): > 20 µM; IC50 (HT-29 [13]): > 20 µM
Cc1nc(=O)c2cc(CN(C)c3ccc(C(=O)N[C@@H](CCC(=O)O)C(=O)O)s3)ccc2[nH]1 | – | – | – | – | – | inhibition [16]: 94.2%
Nc1nc(N)c2cc(CSC(=S)N3CCN(c4ccc(Cl)c(Cl)c4)CC3)ccc2n1 | 2.94 | 3.48 | 3.06 | 6.68 | 2.37 | –
Cc1ccccc1N1CCN(C(=S)SCc2ccc3nc(N)nc(N)c3c2)CC1 | 3.92 | 2.95 | – | 11.8 | 4.23 | –
Nc1nc(N)c2cc(CSC(=S)N3CCN(c4ccccc4Cl)CC3)ccc2n1 | 3.61 | 3.9 | 4.05 | 5.49 | 3.19 | –
COc1ccc(N2CCN(C(=S)SCc3ccc4nc(N)nc(N)c4c3)CC2)cc1 | 1.59 | 1.77 | 1.66 | 2.27 | 1.58 | Activity (HCT-116 [6]): 33.34%; Activity (HCT-116 [7]): Active; IC50 (Dihydrofolate reductase): 5.96 µM; Activity (HCT-116 [8]): 14.29%; Ratio (HCT-116 [14]): 0.76; inhibition [17]: 24%; Activity (HCT-116 [9]): 52.36%; inhibition [18]: 15.2%
Cc1ccc(N2CCN(C(=S)SCc3ccc4nc(N)nc(N)c4c3)CC2)cc1 | 2.19 | 3.02 | 2.13 | 5.51 | 2.48 | –
Nc1nc(N)c2cc(CSC(=S)N3CCN(c4ccc(O)cc4)CC3)ccc2n1 | 4.21 | – | 5.18 | 5.98 | 5.09 | IC50 (HT-29 [13]): > 20 µM
Nc1nc(N)c2cc(CSC(=S)N3CCN(c4ccc(F)cc4)CC3)ccc2n1 | 2.04 | 2.05 | 1.84 | 3.27 | 1.92 | Activity (HCT-116 [6]): 39.22%; Activity (HCT-116 [7]): Active; IC50 (Dihydrofolate reductase): 2.11 µM; Activity (HCT-116 [8]): 14.15%; Ratio (HCT-116 [14]): 0.45; inhibition [17]: 35%; Activity (HCT-116 [9]): 46.63%; inhibition [18]: 19.9%
Nc1nc(N)c2cc(CSC(=S)N3CCN(c4ccc([N+](=O)[O-])cc4)CC3)ccc2n1 | 1.91 | 3.32 | 1.66 | 4.68 | 1.47 | Activity (HCT-116 [6]): 39.46%; Activity (HCT-116 [7]): Active; IC50 (Dihydrofolate reductase): 1.61 µM; Activity (HCT-116 [8]): 15.8%; Ratio (HCT-116 [14]): 0.67; inhibition [17]: 29%; Activity (HCT-116 [9]): 44.74%; inhibition [18]: 14.1%
Cc1ccc(N2CCN(C(=S)SCc3ccc4nc(N)nc(N)c4c3)CC2)c(C)c1 | 3 | 2.97 | 3.19 | 4.07 | 3.12 | –
Nc1nc(N)c2cc(CSC(=S)N3CCN(c4ccccn4)CC3)ccc2n1 | 3.96 | 6.2 | 5.09 | 5.96 | 5.11 | –
Nc1nc(N)c2cc(CSC(=S)N3CCN(Cc4ccccc4)CC3)ccc2n1 | 3.31 | 8.49 | 8.35 | 4.91 | 8.46 | –
